Read-outs that look alike come from different tables or passages of the source.
Assays:
NOD mice [1] = test: Development of T1D in genetically susceptible NOD mice; assay type: in vivo; details: NOD mice injected before clinical onset, starting between 18 and 24 weeks of age
spleen cells [2] = test: Global gene expression profiling of spleen cells by microarray; assay type: in vivo, mice
Protocol: To understand the molecular mechanisms underlying protection against T1D bestowed by TSA treatment in NOD/Ltj mice, transcriptome (gene expression profiling) of spleen cells was analyzed by global gene expression profiling using a microarray approach. To this end, total RNA was isolated from diabetic and cured mice, converted into cRNA and then hybridized to AFFYMETRIX GENECHIP Mouse Genome 430 2.0 microarrays that contain 45,000 probe sets representing 34,000 mouse genes. Three-way analysis of gene expression in untreated-non-diabetic mice, overtly diabetic mice, and those cured by TSA treatment yielded 164 differentially regulated genes, filtered by an ANOVA p-value, 0.05. These highly regulated genes were used for hierarchical clustering. Microarray data sets were deposited at Gene Expression Omnibus (accession no. GSE 26461) (Jayaraman, et al. (2013) PLoS One 8:e55074).
Principal component analysis validated the up-regulation of a set of pro-inflammatory genes in uninduced spleens of overtly diabetic mice, and their repression by TSA treatment. This analysis clearly distinguished the genes that may be responsible for T1D manifestation and therefore of significant impact on the diagnosis of T1D in humans (Jayaraman, et al. (2013) PLoS One 8:e55074).

[3] = test system: inflammatory genes such as Cela3b, Cpb1, Pnlip and Cel; test: Quantitative real time-PCR of selected top hit genes; assay type: in vivo, mice
Excerpt: Expression levels of selected top hit genes were verified in spleens by quantitative real time-PCR using primer sets that were validated following MIQE guidelines and RNA derived from spleens of mice that were different from those used for microarray analysis. The expression of inflammatory genes such as Cela3b (elastase 3), Cpb1 (carboxyepetidase B1), Pnlip (pancreatic lipase) and Cel (carboxyl ester lipase) was prominent in the spleens of diabetic mice. […] However, Ctrl (chymotrypsin-like) gene substantially over-expressed in the exocrine pancreas was not repressed by TSA treatment, indicating the selectivity of gene regulation by chromatin remodeling in the pancreata. In addition, the mRNA levels of Pnliprp-1 (pancreatic lipase-related protein 1), Pnlilrp-2, Ctrl, Ctrc and Cpa1 were not altered by TSA treatment.

spleen cells [4] = test: Flow cytometry of innate immune cell frequency in spleen; assay type: in vivo, mice
Protocol: Insulin-producing beta cells can be destroyed by the inflammatory cells and the pro-inflammatory genes that were identified by microarray analysis and further validated by quantitative RT-PCR. Therefore, it was determined whether amelioration of T1D by TSA treatment involves alteration in the frequency of innate immune cells that are likely to express the Cela3b gene. Therefore, T1D susceptible NOD mice were injected with TSA before the clinical onset of diabetes, starting between 18 and 24 weeks of age, and spleen cells were stained with fluorochrome-labeled antibodies and analyzed by flow cytometry. The numbers of both macrophages of the CD11b+Ly6C+ phenotype and neutrophils expressing CD11b+Ly6G+ determinants, known to exert inflammatory responses and tissue damage, increased in the spleen of overtly diabetic mice when compared to prediabetic mice.

elastase = test: Flow cytometry of intracellular elastase in Ly6C+ and Ly6G+ spleen cells; assay type: in vivo, mice
Protocol: It was next investigated whether there was a correlation between the numbers of inflammatory cells expressing elastase and the health status. To this end, spleen cells from diabetic mice and those treated with TSA and cured of diabetes were surface labeled with FITC labeled anti-Ly6C antibody (to stain macrophages) and anti-Ly6G antibody (to stain neutrophils). After staining, cells were fixed, permeabilized and incubated with rabbit antibody against elastase, followed by treatment with TRITC-labeled goat anti-rabbit antibody. Cells were analyzed by flow cytometry for the cell surface expression of Ly6C or Ly6G and these cells were gated and analyzed for the intracellular expression of elastase. […] Similarly, the numbers of Ly6G+ neutrophils co-expressing elastase protein were also diminished in TSA treated and cured mice. Thus, TSA treatment abrogated spontaneously occurring T1D in NOD mice, which was negatively correlated with the frequency of both Ly6C+ macrophages and Ly6G+ neutrophils that co-express elastase.

islets = test: Confocal imaging of inflammatory cell infiltration in pancreatic sections; assay type: in vivo; details: drug-treated and cured mice
Protocol: To visualize the effect of TSA treatment on the infiltration of inflammatory cells in the pancreas, paraffin-embedded pancreatic sections were treated with antibodies against insulin, Ly6C+ macrophages and Ly6G+ neutrophils. Sections were then imaged on a confocal microscope and the images analyzed. Both Ly6C+ macrophages and Ly6G+ neutrophils were evident in the islets of diabetic mice, as identified by co-staining with an anti-insulin antibody. In contrast, both Ly6C+ macrophages and Ly6G+ neutrophils were absent in the islets of drug-treated and cured mice. […] Treatment with TSA effectively eradicated the infiltration of inflammatory cells and thereby provides protection against T1D in the mouse model.

NOD mice [5] = details: injection; cited from earlier work
[6] = drug administration in mice; cited from earlier work
elastase gene = details: cited from earlier work
islets of Langerhans = details: TSA treatment; cited from earlier work

CC(/C=C/C(=O)NO)=C\[C@@H](C)C(=O)c1ccc(N(C)C)cc1 [TSA, Trichostatin A]
diabetes (NOD mice [1]): ameliorated diabetes
set of genes (n=17) over-expressed in spleens of acutely diabetic mice (spleen cells [2]; microarray, spleens): repressed
expression of lipases Pnliprp1, Pnliprp2, Cel and Pnilp functionally related to Cela3b (spleen cells [2]; regulated along with Cela3b): downregulated
Ctrl (chymotrypsin-like) gene expression ([3]; over-expressed in the exocrine pancreas, pancreata): not repressed
mRNA level of Cpa1 ([3]; qRT-PCR): not altered
mRNA level of Ctrc ([3]; qRT-PCR): not altered
mRNA level of Ctrl ([3]; qRT-PCR): not altered
mRNA level of Pnlilrp-2 ([3]; qRT-PCR): not altered
mRNA level of Pnliprp-1 (pancreatic lipase-related protein 1) ([3]; qRT-PCR): not altered
expression level of Cel (carboxyl ester lipase) ([3]; qRT-PCR, spleens): reduced the expression levels of these genes substantially
expression level of Cela3b (elastase 3) ([3]; qRT-PCR, spleens): reduced the expression levels of these genes substantially
expression level of Cpb1 (carboxyepetidase B1) ([3]; qRT-PCR, spleens): reduced the expression levels of these genes substantially
expression level of Pnlip (pancreatic lipase) ([3]; qRT-PCR, spleens): reduced the expression levels of these genes substantially
frequency of CD11b+F4/80+ macrophages (spleen cells [4]; spleen, flow cytometry): did not affect the frequency
frequency of CD11b+Ly6C+ macrophages (spleen cells [4]; spleen, flow cytometry): reduced the frequency
frequency of CD11b+Ly6G+ neutrophils (spleen cells [4]; spleen, flow cytometry): reduced the frequency
numbers of dendritic cells expressing CD11c determinant (spleen cells [4]; spleens, versus prediabetic and diabetic mice): Essentially, the same numbers
numbers of Ly6G+ neutrophils co-expressing elastase protein (elastase; spleens of TSA treated and cured mice): diminished
numbers of Ly6C+ macrophages that contained elastase in the cytoplasm (elastase; spleens of cured versus diabetic mice): significantly lower numbers
Ly6C+ macrophages in the islets (islets): absent
Ly6G+ neutrophils in the islets (islets): absent
development of T1D (NOD mice [5]): prevents the development of T1D
side effects or gross pathological changes [6]: did not result in obvious side effects or gross pathological changes
expression of the elastase gene (elastase gene; peripheral lymphoid organ spleen): significantly lowered
expression of the elastase gene (elastase gene; target organ pancreas): significantly lowered
beta cells producing insulin (islets of Langerhans): preservation of the beta cells
inflammation surrounding the islets of Langerhans (islets of Langerhans): eradication of inflammation surrounding the islets of Langerhans
